According to US20250136568A1, “FUSED HETEROCYCLIC COMPOUNDS AS PI3KALPHA INHIBITORS” (Nanjing Zenshine Pharmaceuticals Co., Ltd., priority 2021, published 2025):
Read-outs that look alike come from different tables or passages of the source.

Experiments:
[1] = tested on: PI3Kα H1047R mutation cell line T-47D; assay: Cell Proliferation IC50 Assay (CellTiter-Glo), T-47D; format: cell-based; conditions: Homo sapiens, T47D (H1047R), 72 hours, CellTiter-Glo, read-out: IC50 (μM) T47D
From the text: (§1) PI3Kα H1047R mutation cell line T-47D and MDA-MB-453, E545K mutation cell line MDA-MB-361 and PI3Kα wide type cell line SK-BR-3 were purchased from Cobioer Biotech (cat. no CBP60397, CBP60386, CBP60383 and CBP60413 respectively). The CellTiter-Glo Direct Cell Proliferation Assay Kit was purchased from Prornega (cat. No. G7573)
(§2) For cell proliferation assay in each cell line: • a. Prepare complete medium (R PMI 1640, DMEM or McCoys): Add FBS and appropriate additives according to the information sheet provided by the vendor. Mix gently. • b. Prepare single cell suspension and count the cell numbers and adjust cells to appropriate density. • c. Add 80 μL of cell suspension to 96-well opaque-walled clear bottom plates according to the planned plate layout and place the plates in the CO2 incubator overnight. • d. Prepare intermediate plate: 10 μl of diluted test compounds or staurosporine solution (200×) is added to a 96 deep well plate. Then 390 μl of culture medium without FBS is added to the respective wells. • e. Transfer 20 μL of the solutions from the above intermediate plate to the wells of the plate prepared containing 80 μL of the culture medium and cells. The total dilution is 200 folds. • f. The cells were then incubated at 5% CO2, 37° C. for 72 hours. • g. Equilibrate the plate and its contents to room temperature for approximately 30 minutes. • h. Add 100 μL of CellTiter-Glo reagent to the assay plate • i. Mix contents for 10 minutes on an orbital shaker to induce cell lysis. • j. Allow the plate to incubate at room temperature for 10 minutes to stabilize luminescent signal, • k. Paste the clear bottom with white back seal and record luminescence with Varioskan LUX plate reader.
(§3) Inhibition % and IC50 value were calculated by the formula described below: […]

[2] = tested on: PI3Kα wide type cell line SK-BR-3; assay: Cell Proliferation IC50 Assay (CellTiter-Glo), SK-BR-3; format: cell-based; conditions: Homo sapiens; SK-BR-3 (PI3Kα wild type), 72 hours, CellTiter-Glo; read-out: IC50 (μM) SK-BR-3
From the text: as §1, §2, §3

Row | Structure (SMILES) | IC50 ([1]; T47D, 72 h) | IC50 [2] | IC50 [1]
1 | Cc1cc(C(C)Nc2ccccc2C(=O)O)c2oc(-c3cc4ccncc4[nH]3)cc(=O)c2c1 (stereo not shown) [Example 117, 2-((1-(6-methyl-4-oxo-2-(1H-pyrrolo[2,3-c]pyridin-2-yl)-4H-chromen-8-yl)ethyl)amino)benzoic acid] | 0.28 µM | > 10 µM | –
2 | Cc1cc(C(C)Nc2ccccc2C(=O)O)c2oc(-c3ccc4c(=O)n(C)cnc4c3)cc(=O)c2c1 (stereo not shown) [Example 121, 2-((1-(6-methyl-2-(3-methyl-4-oxo-3,4-dihydroquinazolin-7-yl)-4-oxo-4H-chromen-8-yl)ethyl)amino)benzoic acid] | 0.76 µM | > 10 µM | –
3 | Cc1cc([C@@H](C)Nc2ccccc2C(=O)O)c2oc(-c3ccc(CN4CCCC4=O)cc3)c(C)c(=O)c2c1 [Example 135, (R)-2-((1-(3,6-dimethyl-4-oxo-2-(4-((2-oxopyrrolidin-1-yl)methyl)phenyl)-4H-chromen-8-yl)ethyl)amino)benzoic acid] | 0.18 µM | > 10 µM | –
4 | Cc1cc([C@@H](C)Nc2ccccc2C(=O)O)c2oc(-c3ccc(Cn4cncn4)cc3)c(C)c(=O)c2c1 [Example 136, (R)-2-((1-(2-(4-((1H-1,2,4-triazol-1-yl)methyl)phenyl)-3,6-dimethyl-4-oxo-4H-chromen-8-yl)ethyl)amino)benzoic acid] | > 10 µM | > 10 µM | –
5 | CC(=O)N1CCN(Cc2ccc(-c3oc4c([C@@H](C)Nc5ccccc5C(=O)O)cc(C)cc4c(=O)c3C)cc2)CC1 [Example 137, (R)-2-((1-(2-(4-((4-acetylpiperazin-1-yl)methyl)phenyl)-3,6-dimethyl-4-oxo-4H-chromen-8-yl)ethyl)amino)benzoic acid] | 0.19 µM | > 10 µM | –
6 | CC(=O)N1CCN(C(C)c2ccc(-c3oc4c([C@@H](C)Nc5ccccc5C(=O)O)cc(C)cc4c(=O)c3C)cc2)CC1 (stereo partly drawn) [Example 138, 2-(((1R)-1-(2-(4-(1-(4-acetylpiperazin-1-yl)ethyl)phenyl)-3,6-dimethyl-4-oxo-4H-chromen-8-yl)ethyl)amino)benzoic acid] | 0.083 µM | > 10 µM | –
7 | CC(=O)N1CCN(C(=O)c2ccc(-c3oc4c([C@@H](C)Nc5ccccc5C(=O)O)cc(C)cc4c(=O)c3C)cc2)CC1 [Example 139, (R)-2-((1-(2-(4-(4-acetylpiperazine-1-carbonyl)phenyl)-3,6-dimethyl-4-oxo-4H-chromen-8-yl)ethyl)amino)benzoic acid] | 1.04 µM | > 10 µM | –
8 | Cc1cc([C@@H](C)Nc2ccccc2C(=O)O)c2oc(-c3ccc(OCCN4CCOCC4)cc3)c(C)c(=O)c2c1 [Example 141, (R)-2-((1-(3,6-dimethyl-2-(4-(2-morpholinoethoxy)phenyl)-4-oxo-4H-chromen-8-yl)ethyl)amino)benzoic acid] | 0.044 µM | > 10 µM | –
9 | Cc1cc([C@@H](C)Nc2ccccc2C(=O)O)c2oc(-c3ccc(CCN4CCOCC4)cc3)c(C)c(=O)c2c1 [Example 142, (R)-2-((1-(3,6-dimethyl-2-(4-(2-morpholinoethyl)phenyl)-4-oxo-4H-chromen-8-yl)ethyl)amino)benzoic acid] | 0.043 µM | > 10 µM | –
10 | Cc1cc(C(C)Nc2ccccc2C(=O)O)c2oc(-c3ccc(-n4ccnc4)cc3)cc(=O)c2c1 (stereo not shown) [Example 143, 2-((1-(2-(4-(1H-imidazol-1-yl)phenyl)-6-methyl-4-oxo-4H-chromen-8-yl)ethyl)amino)benzoic acid] | 0.25 µM | > 10 µM | –
11 | Cc1cc(C(C)Nc2ccccc2C(=O)O)c2oc(-c3ccc(-c4cn(C)cn4)cc3)cc(=O)c2c1 (stereo not shown) [Example 144, 2-((1-(6-methyl-2-(4-(1-methyl-1H-imidazol-4-yl)phenyl)-4-oxo-4H-chromen-8-yl)ethyl)amino)benzoic acid] | 0.14 µM | > 10 µM | –
12 | CC(=O)N1CC(c2ccc(-c3cc(=O)c4cc(C)cc(C(C)Nc5ccccc5C(=O)O)c4o3)cc2)C1 (stereo not shown) [Example 145, 2-((1-(2-(4-(1-acetylazetidin-3-yl)phenyl)-6-methyl-4-oxo-4H-chromen-8-yl)ethyl)amino)benzoic acid] | 1.6 µM | > 10 µM | –
13 | Cc1cc([C@@H](C)Nc2ccccc2C(=O)O)c2oc(-c3ccc(Cn4ccnc4)cc3)c(C)c(=O)c2c1 [Example 146, (R)-2-((1-(2-(4-((1H-imidazol-1-yl)methyl)phenyl)-3,6-dimethyl-4-oxo-4H-chromen-8-yl)ethyl)amino)benzoic acid] | 0.18 µM | > 10 µM | –
14 | Cc1cc(C(C)Nc2ccccc2C(=O)O)c2oc(-c3cnc(N4CCOCC4)nc3)cc(=O)c2c1 (stereo not shown) [Example 152, 2-((1-(6-methyl-2-(2-morpholinopyrimidin-5-yl)-4-oxo-4H-chromen-8-yl)ethyl)amino)benzoic acid] | 6.9 µM | > 10 µM | –
15 | CC(=O)N1CCN(c2ccc(-c3oc4c([C@@H](C)Nc5ccccc5C(=O)O)cc(C)cc4c(=O)c3C)cn2)CC1 [Example 153, (R)-2-((1-(2-(6-(4-acetylpiperazin-1-yl)pyridin-3-yl)-3,6-dimethyl-4-oxo-4H-chromen-8-yl)ethyl)amino)benzoic acid] | 0.29 µM | > 10 µM | –
16 | Cc1cc(C(C)Nc2ccccc2C(=O)NO)c2oc(-c3ccc4nn(C)cc4c3)c(C)c(=O)c2c1 (stereo not shown) [Example 156, 2-((1-(3,6-dimethyl-2-(2-methyl-2H-indazol-5-yl)-4-oxo-41H-chromen-8-yl)ethyl)amino)-N-hydroxybenzamide] | 0.13 µM | > 10 µM | –
17 | Cc1cc([C@@H](C)Nc2ccccc2C(=O)NS(=O)(=O)C2CC2)c2oc(-c3ccc4nn(C)cc4c3)cc(=O)c2c1 [Example 157, (R)—N-(cyclopropylsulfonyl)-2-((1-(6-methyl-2-(2-methyl-2H-indazol-5-yl)-4-oxo-4H-chromen-8-yl)ethyl)amino)benzamide] | 3.43 µM | > 10 µM | –
18 | Cc1cc([C@@H](C)Nc2ccccc2C(=O)NS(C)(=O)=O)c2oc(-c3ccc4nn(C)cc4c3)cc(=O)c2c1 [Example 158, (R)-2-((1-(6-methyl-2-(2-methyl-2H-indazol-5-yl)-4-oxo-4H-chromen-8-yl)ethyl)amino)-N-(methylsulfonyl)benzamide] | 5.5 µM | > 10 µM | –
19 | CC(=O)N1CCN(c2ccc(-c3oc4c(C(C)Nc5ccccc5S(N)(=O)=O)cc(C)cc4c(=O)c3C)cc2)CC1 (stereo not shown) [Example 159, 2-((1-(2-(4-(4-acetylpiperazin-1-yl)phenyl)-3,6-dimethyl-4-oxo-4H-chromen-8-yl)ethyl)amino)benzenesulfonamide] | 0.41 µM | > 10 µM | –
20 | Cc1cc([C@@H](C)Nc2ccccc2C(=O)O)c2oc(-c3ccc(OC4CCN(C)C4)cc3)c(C)c(=O)c2c1 (stereo partly drawn) [Example 160, 2-(((1R)-1-(3,6-dimethyl-2-(4-((1-methylpyrrolidin-3-yl)oxy)phenyl)-4-oxo-4H-chromen-8-yl)ethyl)amino)benzoic acid] | – | > 10 µM | 0.065 µM
21 | Cc1cc([C@@H](C)Nc2ccccc2C(=O)O)c2oc(-c3ccc(N4CCC(N(C)C)CC4)cc3)c(C)c(=O)c2c1 [Example 161, (R)-2-((1-(2-(4-(4-(dimethylamino)piperidin-1-yl)phenyl)-3,6-dimethyl-4-oxo-4H-chromen-8-yl)ethyl)amino)benzoic acid] | 0.067 µM | 6.5 µM | –
22 | Cc1cc([C@@H](C)Nc2ccccc2C(=O)O)c2oc(-c3ccc(-c4cn(C)cn4)cc3)c(C)c(=O)c2c1 [Example 162, (R)-2-((1-(3,6-dimethyl-2-(4-(1-methyl-1H-imidazol-4-yl)phenyl)-4-oxo-4H-chromen-8-yl)ethyl)amino)benzoic acid] | 0.23 µM | > 10 µM | –
23 | Cc1cc([C@@H](C)Nc2ccccc2C(=O)O)c2oc(-c3ccc(-c4cn(C)cn4)nc3)c(C)c(=O)c2c1 [Example 163] | – | > 10 µM | 0.12 µM
24 | Cc1cc([C@@H](C)Nc2ccccc2C(=O)O)c2oc(-c3ccc(-c4cnn(C)c4)nc3)cc(=O)c2c1 [Example 164, (R)-2-((1-(6-methyl-2-(6-(1-methyl-1H-pyrazol-4-yl)pyridin-3-yl)-4-oxo-4H-chromen-8-yl)ethyl)amino)benzoic acid] | 0.38 µM | > 10 µM | –
25 | Cc1cc([C@@H](C)Nc2ccc(Cl)nc2C(=O)O)c2oc(-c3ccc(OCCN(C)C)cc3)c(C)c(=O)c2c1 [Example 165, (R)-6-chloro-3-((1-(2-(4-(2-(dimethylamino)ethoxy)phenyl)-3,6-dimethyl-4-oxo-41-1 chromen-8-yl)ethyl)amino)picolinic acid] | 0.042 µM | 4.39 µM | –
26 | Cc1cc([C@@H](C)Nc2ccccc2C(=O)O)c2oc(-c3ccc(OCCN(C)C)cc3)cc(=O)c2c1 [Example 166, (R)-2-((1-(2-(4-(2-(dimethylamino)ethoxy)phenyl)-6-methyl-4-oxo-4H-1-chromen-8-yl)ethyl)amino)benzoic acid] | 0.23 µM | > 10 µM | –
